Measured values from publication PMC8249783, “A novel multikinase inhibitor SKLB‐YTH‐60 ameliorates inflammation and fibrosis in bleomycin‐induced lung fibrosis mouse models” (Cell Proliferation, 2021).
Where two headings read alike, the source gives them in different places.

Test: Pharmacokinetics study after IV and PO administration to SD rats
Assay type: in vivo
Conditions: rat, plasma
Method: The appropriate amount of YTH‐60 was accurately weighed, added to the final volume of 5% DMSO, 40% PEG400 and 55% normal saline, and vortexed or ultrasonicated to fully mix. Then, 0.4 and 2 mg·mL^−1 of clarified dosing solution was used for intravenous administration and oral gavage administration. SD rats were transferred from the Experimental Animal Library (999 M‐017), Shanghai Xipuer‐Beikai Experimental Animal Co. Ltd. After oral, intravenous or intragastric administration, blood was collected by jugular vein or other suitable methods. Approximately 0.20 mL of each sample was collected, in the presence of heparin sodium as an anticoagulant. After the blood samples were collected, they were placed on ice and centrifuged to separate plasma within 2 hours (centrifugation conditions: centrifugal force 6800 g, 6 minutes, 2‐8°C). The collected plasma samples were stored at −80°C before analysis by LC‐MS/MS‐18. After analysis, the remaining plasma samples were stored at −80°C for a period of 1 month.

[1] = SD, po, 20 mg/kg, PO 20 mg/kg, individual animals 201, 202, 203, read-out: Individual plasma concentration
[2] = SD, po, 20 mg/kg, PO 20 mg/kg, read-out: Mean plasma concentration
[3] = Sprague-Dawley, iv, 2 mg/kg, IV 2 mg/kg, individual animals 101, 102, 103, read-out: Individual plasma concentration
[4] = Sprague-Dawley, iv, 2 mg/kg, IV 2 mg/kg, read-out: Mean plasma concentration
[5] = Sprague-Dawley, po, 20 mg/kg, PO 20 mg/kg, individual animals 201, 202, 203, read-out: Individual plasma concentration
[6] = Sprague-Dawley, po, 20 mg/kg, PO 20 mg/kg, read-out: Mean plasma concentration

`COc1cc(OC)c(Cl)c(-c2ccc3c(/C=C/c4ccc(N(C)C(=O)CN5CCN(C)CC5)cc4)n[nH]c3c2)c1Cl` [YTH‐60, (E)‐N‐(4‐(2‐(6‐(2,6‐dichloro‐3,5‐dimethoxyphenyl)‐1H‐indazol‐3‐yl)vinyl)phenyl)‐N‐methyl‐2‐(4‐methylpiperazin‐1‐yl)acetamide] showed a concentration at 6 h [1] of 82.5 ng/mL, a concentration at 6 h [2] of 94.2 ng/mL and a concentration at 8 h [1] of 67.4 ng/mL. For the same compound, the concentration at 8 h [2] was 81.5 ng/mL, the AUC (SD, po, 20 mg/kg, SD rats, 20 mg·kg^−1 oral administration, read-out: mean AUC(0‐t)) was 1380 ng·h/mL and the AUC (SD, po, 20 mg/kg, SD rats, p.o. 20 mg·kg^−1, read-out: AUC0‐t) was 1380 ± 152 ng·h/mL. For the same compound, the AUC (SD, po, 20 mg/kg, SD rats, p.o. 20 mg·kg^−1, read-out: AUC0‐∞) was 1610 ± 177 ng·h/mL, the MRT (SD, po, 20 mg/kg, SD rats, p.o. 20 mg·kg^−1, read-out: MRT0‐t) was 8.38 ± 0.31 h and the MRT (SD, po, 20 mg/kg, SD rats, p.o. 20 mg·kg^−1, read-out: MRT0‐∞) was 12.4 ± 2.67 h. The concentration at 0.083 h [3] was 355 ng/mL, the concentration at 0.083 h [4] was 380 ng/mL and the concentration at 0.25 h [3] was 187 ng/mL. The concentration at 0.25 h [4] was 187 ng/mL, the concentration at 0.5 h [3] was 153 ng/mL and the concentration at 0.5 h [4] was 149 ng/mL. The concentration at 1 h [3] was 112 ng/mL, the concentration at 1 h [4] was 117 ng/mL and the concentration at 8 h [4] was 25 ng/mL. It also gave a concentration at 24 h [3] of 2.27 ng/mL, a concentration at 24 h [4] of 2.82 ng/mL and a concentration at 0.25 h [5] of 33.6 ng/mL. It also gave a concentration at 0.25 h [6] of 31.6 ng/mL, a concentration at 0.5 h [5] of 40.6 ng/mL and a concentration at 0.5 h [6] of 33.8 ng/mL. For the same compound, the concentration at 1 h [5] was 35.9 ng/mL, the concentration at 1 h [6] was 32.1 ng/mL and the concentration at 24 h [5] was 24.5 ng/mL. For the same compound, the concentration at 24 h [6] was 19.1 ng/mL, the Cmax (iv, SD rats, i.v. 2 mg·kg^−1) was 380 ± 37 ng/mL and the Tmax (iv, SD rats, i.v. 2 mg·kg^−1) was 0.08 h. For the same compound, the half-life (iv, SD rats, i.v. 2 mg·kg^−1) was 4.92 ± 0.17 h, the clearance (iv, SD rats, i.v. 2 mg·kg^−1, unit inferred) was 42.5 mL/min/kg and the Cmax (po, SD rats, p.o. 20 mg·kg^−1) was 95.8 ± 16.6 ng/mL. It also gave a Tmax (po, SD rats, p.o. 20 mg·kg^−1) of 4.67 ± 2.31 h, a half-life (po, SD rats, p.o. 20 mg·kg^−1) of 8.03 ± 2.16 h and a bioavailability (po, SD rats, p.o. 20 mg·kg^−1, read-out: F (oral bioavailability)) of 17.9 ± 1.97%.
